Measured values reported in patent US7605156B2, “Methods for the use of inhibitors of cytosolic phospholipase A2” (Wyeth, priority 2001, dated 2009).

Biological target: T1, cPLA2 (Homo sapiens, UniProt P47712)
T1 sequence (P47712 1-749): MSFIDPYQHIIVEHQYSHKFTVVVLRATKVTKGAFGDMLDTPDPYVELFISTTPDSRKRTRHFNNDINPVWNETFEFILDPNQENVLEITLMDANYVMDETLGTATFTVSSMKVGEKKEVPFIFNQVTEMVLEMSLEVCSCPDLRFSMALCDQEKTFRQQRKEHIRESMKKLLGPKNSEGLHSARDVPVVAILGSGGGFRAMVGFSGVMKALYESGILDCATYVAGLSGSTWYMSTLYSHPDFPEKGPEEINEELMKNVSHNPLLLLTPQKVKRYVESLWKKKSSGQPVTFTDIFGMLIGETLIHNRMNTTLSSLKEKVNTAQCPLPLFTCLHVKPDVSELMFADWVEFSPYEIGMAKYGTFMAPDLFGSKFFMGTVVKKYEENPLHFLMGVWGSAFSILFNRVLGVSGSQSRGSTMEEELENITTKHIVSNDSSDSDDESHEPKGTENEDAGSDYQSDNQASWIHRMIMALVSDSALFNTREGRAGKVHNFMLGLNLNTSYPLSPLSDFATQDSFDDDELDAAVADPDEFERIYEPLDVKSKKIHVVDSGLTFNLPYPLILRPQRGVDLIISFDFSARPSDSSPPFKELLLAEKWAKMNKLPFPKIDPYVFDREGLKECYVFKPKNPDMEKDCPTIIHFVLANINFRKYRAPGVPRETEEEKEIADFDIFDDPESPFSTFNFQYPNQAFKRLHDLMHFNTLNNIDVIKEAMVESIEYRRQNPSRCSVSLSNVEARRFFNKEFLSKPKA
Experiment: Coumarine assay (hydrolysis of 7-hydroxycoumarinyl 6-heptenoate)
Format: biochemical
Conditions: 60 μM 7-hydroxycoumarinyl 6-heptenoate, pH 7.5; read-out: Coumarin IC50

Structure (SMILES)	IC50 [nM]
O=C(O)c1ccc(CCCc2c(CCNS(=O)(=O)c3ccccc3F)n(C(c3ccccc3)c3ccccc3)c3ccc(Cl)cc23)cc1 [Example 222, 4-{3-[1-Benzhydryl-5-chloro-2-(2-{[(2-fluorophenyl)sulfonyl]amino}ethyl)-1H-indol-3-yl)propyl]benzoic acid]	190
O=C(O)c1ccc(OCCc2c(CCNS(=O)(=O)c3ccccc3F)n(C(c3ccccc3)c3ccccc3)c3ccc(Cl)cc23)cc1 [Example 223]	600
O=C(O)c1ccc(CCCc2c(CCNS(=O)(=O)c3c(F)cccc3F)n(C(c3ccccc3)c3ccccc3)c3ccc(Cl)cc23)cc1 [Example 224]	250
O=C(O)c1ccc(OCCc2c(CCNS(=O)(=O)c3c(F)cccc3F)n(C(c3ccccc3)c3ccccc3)c3ccc(Cl)cc23)cc1 [Example 225, 4-{2-[1-benzhydryl-5-chloro-2-(2-{[(2,6-difluorophenyl)sulfonyl]amino}ethyl)-1H-indol-3-yl]ethoxy}benzoic acid]	400
Cc1cccc(Cl)c1S(=O)(=O)NCCc1c(CCCc2ccc(C(=O)O)cc2)c2cc(Cl)ccc2n1C(c1ccccc1)c1ccccc1 [Example 226]	140
Cc1cccc(Cl)c1S(=O)(=O)NCCc1c(CCOc2ccc(C(=O)O)cc2)c2cc(Cl)ccc2n1C(c1ccccc1)c1ccccc1 [Example 227, 4-{2-[1-benzhydryl-5-chloro-2-(2-{[(2-chloro-6-methylphenyl)sulfonyl]amino}ethyl)-1H-indol-3-yl]ethoxy}benzoic acid]	160
O=C(O)c1ccc(CCCc2c(CCNS(=O)(=O)c3ccc(C(F)(F)F)cc3)n(C(c3ccccc3)c3ccccc3)c3ccc(Cl)cc23)cc1 [Example 228]	400
O=C(O)c1ccc(OCCc2c(CCNS(=O)(=O)c3ccc(C(F)(F)F)cc3)n(C(c3ccccc3)c3ccccc3)c3ccc(Cl)cc23)cc1 [Example 229, 4-(2-{1-benzhydryl-5-chloro-2-[2-({[4-(trifluoromethyl)phenyl]sulfonyl}amino)ethyl]-1H-indol-3-yl}ethoxy)benzoic acid]	500
O=C(O)c1ccc(OCCc2c(CCNS(=O)(=O)c3ccccc3OC(F)(F)F)n(C(c3ccccc3)c3ccccc3)c3ccc(Cl)cc23)cc1 [Example 231]	250
Cc1ccccc1S(=O)(=O)NCCc1c(CCCc2ccc(C(=O)O)cc2)c2cc(Cl)ccc2n1C(c1ccccc1)c1ccccc1 [Example 232]	130
Cc1ccccc1S(=O)(=O)NCCc1c(CCOc2ccc(C(=O)O)cc2)c2cc(Cl)ccc2n1C(c1ccccc1)c1ccccc1 [Example 233, 4-{2-[1-benzhydryl-5-chloro-2-(2-{[(2-methylphenyl)sulfonyl]amino}ethyl)-1H-indol-3-yl]ethoxy}benzoic acid]	340
COc1ccccc1S(=O)(=O)NCCc1c(CCCc2ccc(C(=O)O)cc2)c2cc(Cl)ccc2n1C(c1ccccc1)c1ccccc1 [Example 234, 4-{3-[1-Benzhydryl-5-chloro-2-(2-{[(2-methoxyphenyl)sulfonyl]amino}ethyl)-1H-indol-3-yl]propyl}benzoic acid]	230
COc1ccccc1S(=O)(=O)NCCc1c(CCOc2ccc(C(=O)O)cc2)c2cc(Cl)ccc2n1C(c1ccccc1)c1ccccc1 [Example 235, 4-{2-[1-benzhydryl-5-chloro-2-(2-{[(2-methoxyphenyl)sulfonyl]amino}ethyl)-1H-indol-3-yl]ethoxy}benzoic acid]	180
CC(C)(C)c1ccccc1S(=O)(=O)NCCc1c(CCCc2ccc(C(=O)O)cc2)c2cc(Cl)ccc2n1C(c1ccccc1)c1ccccc1 [Example 236]	85
CC(C)(C)c1ccccc1S(=O)(=O)NCCc1c(CCOc2ccc(C(=O)O)cc2)c2cc(Cl)ccc2n1C(c1ccccc1)c1ccccc1 [Example 237, 4-{2-[1-benzhydryl-2-(2-{[(2-tert-butylphenyl)sulfonyl]amino}ethyl)-5-chloro-1H-indol-3-yl]ethoxy}benzoic acid]	200
CSc1ccccc1S(=O)(=O)NCCc1c(CCCc2ccc(C(=O)O)cc2)c2cc(Cl)ccc2n1C(c1ccccc1)c1ccccc1 [Example 238]	250
CSc1ccccc1S(=O)(=O)NCCc1c(CCOc2ccc(C(=O)O)cc2)c2cc(Cl)ccc2n1C(c1ccccc1)c1ccccc1 [Example 239, 4-(2-{1-benzhydryl-5-chloro-2-[2-({[2-(methylthio)phenyl]sulfonyl}amino)ethyl]-1H-indol-3-yl}ethoxy)benzoic acid]	480
Cc1c(Cl)cccc1S(=O)(=O)NCCc1c(CCCc2ccc(C(=O)O)cc2)c2cc(Cl)ccc2n1C(c1ccccc1)c1ccccc1 [Example 240, 4-{3-[1-benzhydryl-5-chloro-2(2-{[(3-chloro-2-methylphenyl)sulfonyl]amino}ethyl)-1H-indol-3-yl]propyl}benzoic acid]	320
Cc1c(Cl)cccc1S(=O)(=O)NCCc1c(CCOc2ccc(C(=O)O)cc2)c2cc(Cl)ccc2n1C(c1ccccc1)c1ccccc1 [Example 241, 4-{2-[1-benzhydryl-5-chloro-2-(2-{[(3-chloro-2-methylphenyl)sulfonyl]amino}ethyl)-1H-indol-3-yl]ethoxy}benzoic acid]	540
CC(=O)N1C(C)CN(CCS(=O)(=O)NCCc2c(CCOc3ccc(C(=O)O)cc3)c3cc(Cl)ccc3n2C(c2ccccc2)c2ccccc2)CC1C (stereo not drawn) [Example 244, 4-[2-(2-{2-[2-(4-Acetyl-3,5-dimethyl-piperazin-1-yl)-ethanesulfonylamino]-ethyl}-1-benzhydryl-5-chloro-1H-indol-3-yl)-ethoxy]-benzoic acid]	1300
CC1CCN(CCS(=O)(=O)NCCc2c(CCOc3ccc(C(=O)O)cc3)c3cc(Cl)ccc3n2C(c2ccccc2)c2ccccc2)CC1 [Example 245, 4-(2-{1-benzhydryl-5-chloro-2-[2-({[2-(4-methylpiperidin-1-yl)ethyl]sulfonyl}amino)ethyl]-1H-indol-3-yl}ethoxy)benzoic acid]	900
CC1CCCN(CCS(=O)(=O)NCCc2c(CCOc3ccc(C(=O)O)cc3)c3cc(Cl)ccc3n2C(c2ccccc2)c2ccccc2)C1 (stereo not drawn) [Example 246, 4-(2-{I-benzhydryl-5-chloro-2-[2-({[2-(3-methylpiperidin-1-yl)ethyl]sulfonyl}amino)ethyl]-1H-indol-3-yl}ethoxy)benzoic acid]	1200
NC(=O)C1CCCN1CCS(=O)(=O)NCCc1c(CCOc2ccc(C(=O)O)cc2)c2cc(Cl)ccc2n1C(c1ccccc1)c1ccccc1 (stereo not drawn) [Example 247, 4-[2-(1-Benzhydryl-2-{2-[2-(2-carbamoyl-pyrrolidin-1-yl)-ethanesulfonylamino]-ethyl}-5-chloro-1H-indol-3-yl)-ethoxy]-benzoic acid]	1200
COC[C@@H]1CCCN1CCS(=O)(=O)NCCc1c(CCOc2ccc(C(=O)O)cc2)c2cc(Cl)ccc2n1C(c1ccccc1)c1ccccc1 [Example 248, 4-[2-(1-benzhydryl-5-chloro-2-{2-[({2-[(2S)-2-(methoxymethyl)pyrrolidin-1-yl]ethyl}sulfonyl)amino]ethyl}-1H-indol-3-yl)ethoxy]benzoic acid]	1200
CCC1CCCCN1CCS(=O)(=O)NCCc1c(CCOc2ccc(C(=O)O)cc2)c2cc(Cl)ccc2n1C(c1ccccc1)c1ccccc1 (stereo not drawn) [Example 249, 4-(2-{1-benzhydryl-5-chloro-2-[2-({[2-(2-ethylpiperidin-1-yl)ethyl]sulfonyl}amino)ethyl]-1H-indol-3-yl}ethoxy)benzoic acid]	670
O=C(O)c1ccc(OCCc2c(CCNS(=O)(=O)CCN3C[C@@H]4C[C@H]3CO4)n(C(c3ccccc3)c3ccccc3)c3ccc(Cl)cc23)cc1 [Example 251]	1500
CC(C)C1CCCN1CCS(=O)(=O)NCCc1c(CCOc2ccc(C(=O)O)cc2)c2cc(Cl)ccc2n1C(c1ccccc1)c1ccccc1 (stereo not drawn) [Example 252, 4-(2-{1-benzhydryl-5-chloro-2-[2-({[2-(2-isopropylpyrrolidin-1-yl)ethyl]sulfonyl}amino)ethyl]-1H-indol-3-yl}ethoxy)benzoic acid]	730
O=C(O)c1ccc(CCCc2c(CCNS(=O)(=O)c3ccccc3Cl)n(C(c3ccccc3)c3ccccc3)c3ccc(Cl)cc23)cc1 [Example 254, 4-{3-[1-benzhydryl-5-chloro-2-(2-{[(2-chlorophenyl)sulfonyl]amino}ethyl)-1H-indol-3-yl]propyl}benzoic acid]	260
O=C(O)c1ccc(OCCc2c(CCNS(=O)(=O)c3ccccc3Cl)n(C(c3ccccc3)c3ccccc3)c3ccc(Cl)cc23)cc1 [Example 255, 4-{2-[1-benzhydryl-5-chloro-2-(2{[(2-chlorophenyl)sulfonyl]amino}ethyl)-1H-indol-3-yl]ethoxy}benzoic acid]	500
O=C(O)c1ccc(S(=O)(=O)CCc2c(CCNS(=O)(=O)c3ccccc3Cl)n(C(c3ccccc3)c3ccccc3)c3ccc(Cl)cc23)cc1 [Example 256, 4-({2-[1-benzhydryl-5-chloro-2-(2-{[(2-chlorophenyl)sulfonyl]amino}ethyl)-1H-indol-3-yl]ethyl}sulfonyl)benzoic acid]	600
